Counter-ions that a name gives are not always drawn. A value given as a limit tells only on which side of the number the result lay.

In general, IC50 refers to the concentration that inhibits the measured activity by half.

One data set deals with NaV1.6 (Homo sapiens (Human), UniProt Q9UQD0). Kind of data set: Sodium Influx Assay (Flux), NaV1.6. Conditions: read-out: Flux NaV1.6 IC50; Trex HEK293 cells, ANG2 dye; arithmetic mean.
The target of another data set is NaV1.1 (Homo sapiens (Human), UniProt P35498). Briefly: Sodium Influx Assay (Flux), NaV1.1. The class given is cell-based. Conditions: Trex HEK293 cells, ANG2 dye; arithmetic mean.
The target of the next data set is NaV1.5 (Homo sapiens (Human), UniProt Q14524). Kind of data set: Sodium Influx Assay (Flux), NaV1.5. As to conditions: read-out: Flux NaV1.5 IC50; Trex HEK293 cells, ANG2 dye; arithmetic mean.
Chain of NaV1.5 (Q14524 other isoform, or with tags, fused parts or gaps): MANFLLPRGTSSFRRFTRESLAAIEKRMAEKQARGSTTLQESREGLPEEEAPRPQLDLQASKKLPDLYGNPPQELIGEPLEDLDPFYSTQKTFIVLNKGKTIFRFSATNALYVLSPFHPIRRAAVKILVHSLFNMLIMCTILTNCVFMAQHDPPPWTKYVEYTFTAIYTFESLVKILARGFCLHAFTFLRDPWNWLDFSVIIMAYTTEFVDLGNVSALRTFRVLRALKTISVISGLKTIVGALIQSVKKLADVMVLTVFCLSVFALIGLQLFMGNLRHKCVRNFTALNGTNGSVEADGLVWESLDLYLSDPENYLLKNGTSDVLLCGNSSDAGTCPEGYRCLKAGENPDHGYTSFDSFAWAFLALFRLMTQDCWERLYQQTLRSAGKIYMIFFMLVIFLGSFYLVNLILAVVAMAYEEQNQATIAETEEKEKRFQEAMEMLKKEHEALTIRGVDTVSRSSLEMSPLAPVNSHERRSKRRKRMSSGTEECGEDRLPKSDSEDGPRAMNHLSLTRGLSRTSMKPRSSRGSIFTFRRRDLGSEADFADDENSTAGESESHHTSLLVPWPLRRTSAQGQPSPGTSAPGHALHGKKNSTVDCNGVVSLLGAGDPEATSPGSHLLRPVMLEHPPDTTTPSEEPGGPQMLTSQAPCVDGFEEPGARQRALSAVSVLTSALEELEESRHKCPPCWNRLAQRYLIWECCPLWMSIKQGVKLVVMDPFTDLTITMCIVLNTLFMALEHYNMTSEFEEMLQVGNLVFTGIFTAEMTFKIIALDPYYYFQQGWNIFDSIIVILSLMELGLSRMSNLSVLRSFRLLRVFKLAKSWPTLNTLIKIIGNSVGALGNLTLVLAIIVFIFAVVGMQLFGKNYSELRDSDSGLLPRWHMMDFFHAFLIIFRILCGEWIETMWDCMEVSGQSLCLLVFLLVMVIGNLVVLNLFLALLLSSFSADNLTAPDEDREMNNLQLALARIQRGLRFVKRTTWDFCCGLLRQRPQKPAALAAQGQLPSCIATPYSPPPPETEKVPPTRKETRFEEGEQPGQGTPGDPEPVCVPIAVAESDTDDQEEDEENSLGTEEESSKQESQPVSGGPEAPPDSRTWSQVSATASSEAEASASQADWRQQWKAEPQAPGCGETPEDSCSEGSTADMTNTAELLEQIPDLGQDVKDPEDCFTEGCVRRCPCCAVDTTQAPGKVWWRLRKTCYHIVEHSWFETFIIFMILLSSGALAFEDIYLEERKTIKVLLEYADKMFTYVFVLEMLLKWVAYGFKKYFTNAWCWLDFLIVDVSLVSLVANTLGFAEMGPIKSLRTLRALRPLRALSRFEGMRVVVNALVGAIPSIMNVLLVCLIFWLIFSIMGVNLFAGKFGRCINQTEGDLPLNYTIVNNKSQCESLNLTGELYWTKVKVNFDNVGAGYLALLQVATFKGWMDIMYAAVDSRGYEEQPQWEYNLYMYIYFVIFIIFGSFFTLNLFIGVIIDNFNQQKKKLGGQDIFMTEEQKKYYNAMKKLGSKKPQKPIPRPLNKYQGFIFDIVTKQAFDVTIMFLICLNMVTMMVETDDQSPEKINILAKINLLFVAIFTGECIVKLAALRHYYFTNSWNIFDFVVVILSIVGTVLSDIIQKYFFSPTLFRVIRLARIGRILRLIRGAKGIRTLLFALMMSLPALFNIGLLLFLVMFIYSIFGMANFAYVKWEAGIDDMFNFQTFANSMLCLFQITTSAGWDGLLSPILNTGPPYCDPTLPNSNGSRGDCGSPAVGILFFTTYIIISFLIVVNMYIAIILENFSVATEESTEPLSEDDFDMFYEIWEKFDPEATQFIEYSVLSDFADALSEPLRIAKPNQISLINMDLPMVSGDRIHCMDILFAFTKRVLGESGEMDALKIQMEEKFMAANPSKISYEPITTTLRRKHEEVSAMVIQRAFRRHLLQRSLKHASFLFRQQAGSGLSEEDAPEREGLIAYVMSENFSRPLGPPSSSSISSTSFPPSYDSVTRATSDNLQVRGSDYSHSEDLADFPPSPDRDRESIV

For `CN(c1cc(F)c(S(=O)(=O)Nc2cscn2)cc1Cl)[C@H]1CCN(Cc2cccs2)C1` [Example 215, (S)-5-chloro-2-fluoro-4-(methyl(1-(thiophen-2-ylmethyl)pyrrolidin-3-yl)amino)-N-(thiazol-4-yl)benzenesulfonamide], the IC50 was 5.2 µM on NaV1.6, 27.5 µM at NaV1.1 and > 30 µM on NaV1.5.

With `Cc1ccnc(CN2CC[C@H](N(C)c3cc(F)c(S(=O)(=O)Nc4cscn4)cc3Cl)C2)c1` [Example 216, (S)-5-chloro-2-fluoro-4-(methyl(1-((4-methylpyridin-2-yl)methyl)pyrrolidin-3-yl)amino)-N-(thiazol-4-yl)benzenesulfonamide], the values for the IC50 at NaV1.6, against NaV1.1 and on NaV1.5 were 3.71 µM, > 30 µM and > 30 µM, respectively.

For `CN(c1cc(F)c(S(=O)(=O)Nc2cscn2)cc1Cl)[C@H]1CCN(Cc2ccc(Br)cc2)C1` [Example 217, (S)-4-((1-(4-bromobenzyl)pyrrolidin-3-yl)(methyl)amino)-5-chloro-2-fluoro-N-(thiazol-4-yl)benzenesulfonamide], the concentration for half-maximal inhibition (IC50) came out at 5.64 µM on NaV1.6, 4.57 µM against NaV1.1 and 6.7 µM at NaV1.5.

On to `CN(c1cc(F)c(S(=O)(=O)Nc2cscn2)cc1Cl)[C@H]1CCN(Cc2ccccc2F)C1` [Example 218, (S)-5-chloro-2-fluoro-4-((1-(2-fluorobenzyl)pyrrolidin-3-yl)(methyl)amino)-N-(thiazol-4-yl)benzenesulfonamide], for which the figures for the IC50 on NaV1.6, against NaV1.1 and on NaV1.5 were 2 µM, 13.7 µM and 14.2 µM, respectively.

On to `Cc1c(F)cccc1CN1CC[C@H](N(C)c2cc(F)c(S(=O)(=O)Nc3cscn3)cc2Cl)C1` [Example 220, (S)-5-chloro-2-fluoro-4-((1-(3-fluoro-2-methylbenzyl)pyrrolidin-3-yl)(methyl)amino)-N-(thiazol-4-yl)benzenesulfonamide], for which the IC50 at NaV1.6 amounted to 3.69 µM; on NaV1.1 it was 5.84 µM; at NaV1.5, 8.19 µM.

Take `Cc1c(OC2CCN(Cc3ccccc3)CC2)cc(F)c(S(=O)(=O)Nc2nccs2)c1F` [Example 223, 4-((1-benzylpiperidin-4-yl)oxy)-2,6-difluoro-3-methyl-N-(thiazol-2-yl)benzenesulfonamide 2,2,2-trifluoroacetate]: the IC50 turned out to be 0.009 µM at NaV1.6, 2.58 µM at NaV1.1 and 23.2 µM on NaV1.5.

With `Cc1c(N(C)[C@H]2CCN(Cc3cccc(C(F)(F)F)n3)C2)cc(F)c(S(=O)(=O)Nc2cscn2)c1F` [Example 224, (S)-2,6-difluoro-3-methyl-4-(methyl(1-((6-(trifluoromethyl)pyridin-2-yl)methyl)pyrrolidin-3-yl)amino)-N-(thiazol-4-yl)benzenesulfonamide 2,2,2-trifluoroacetate], the IC50 on NaV1.6 is 0.024 µM; against NaV1.1 it was 8.89 µM; at NaV1.5 it was > 30 µM.

`C[C@H](c1ccccc1)N1CCC(Oc2ccc(S(=O)(=O)Nc3cscn3)c(F)c2Cl)CC1` [Example 227, (R)-3-chloro-2-fluoro-4-((1-(1-phenylethyl)piperidin-4-yl)oxy)-N-(thiazol-4-yl)benzenesulfonamide formate]: the IC50 at NaV1.6 was 0.855 µM; on NaV1.1, > 30 µM; on NaV1.5 it was > 30 µM.

In the case of `Cc1cc(S(=O)(=O)Nc2ccon2)c(F)cc1N(C)[C@H]1CCN(Cc2ccccc2)C1` [Example 229, (S)-4-((1-benzylpyrrolidin-3-yl)(methyl)amino)-2-fluoro-N-(isoxazol-3-yl)-5-methylbenzenesulfonamide 2,2,2-trifluoroacetate], the half-inhibitory concentration (IC50) at NaV1.6 is 1.56 µM; on NaV1.1, > 30 µM; on NaV1.5 it was > 30 µM.

Take `CN(c1cc(F)c(S(=O)(=O)Nc2cscn2)cc1Br)[C@H]1CCN(Cc2ccccc2)C1` [Example 230, (S)-4-((1-benzylpyrrolidin-3-yl)(methyl)amino)-5-bromo-2-fluoro-N-(thiazol-4-yl)benzenesulfonamide 2,2,2-trifluoroacetate]: the values for the IC50 at NaV1.6, against NaV1.1 and on NaV1.5 were 0.967 µM, 13.1 µM and 23 µM, respectively.

On to `C[C@H]1C[C@H](N(C)c2cc(F)c(S(=O)(=O)Nc3cscn3)cc2Cl)CN1Cc1ccccc1` [Example 231, 4-(((3S,5S)-1-benzyl-5-methylpyrrolidin-3-yl)(methyl)amino)-5-chloro-2-fluoro-N-(thiazol-4-yl)benzenesulfonamide formate], for which the IC50 was 5.51 µM on NaV1.6, 25.5 µM on NaV1.1 and 15.1 µM at NaV1.5.

In the case of `O=S(=O)(Nc1cscn1)c1ccc(OC2CCN(Cc3cccc(C(F)F)c3)CC2)c(Cl)c1` [Example 232, 3-chloro-4-((1-(3-(difluoromethyl)benzyl)piperidin-4-yl)oxy)-N-(thiazol-4-yl)benzenesulfonamide formate], the values for the IC50 at NaV1.6, at NaV1.1 and on NaV1.5 were 0.858 µM, 4.6 µM and 3.76 µM, respectively.

Consider `Cc1c(NC2(C)CN(Cc3ccccc3)C2)cc(F)c(S(=O)(=O)Nc2cscn2)c1F` [Example 233, 4-((1-benzyl-3-methylazetidin-3-yl)amino)-2,6-difluoro-3-methyl-N-(thiazol-4-yl)benzenesulfonamide 2,2,2-trifluoroacetate], for which the IC50 at NaV1.6 turned out to be 0.375 µM; against NaV1.1, 6.02 µM; on NaV1.5 it was 27.3 µM.

For `O=S(=O)(Nc1nccs1)c1ccc(OC2CCN(CCc3ccccc3)CC2)c(Cl)c1` [Example 234, 3-chloro-4-((1-phenethylpiperidin-4-yl)oxy)-N-(thiazol-2-yl)benzenesulfonamide], the IC50 came to 1.42 µM at NaV1.6, 6.87 µM on NaV1.1 and 20.7 µM at NaV1.5.

Consider `Cc1c(N(C)[C@H]2CCN(Cc3cccc(F)c3)C2)cc(F)c(S(=O)(=O)Nc2cscn2)c1F` [Example 235, (S)-2,6-difluoro-4-((1-(3-fluorobenzyl)pyrrolidin-3-yl)(methyl)amino)-3-methyl-N-(thiazol-4-yl)benzenesulfonamide formate], for which the results for the half-maximal inhibitory concentration (IC50) at NaV1.6, against NaV1.1 and on NaV1.5 were 0.047 µM, 10.2 µM and 15.4 µM, respectively.

As to `Cc1c(N(C)[C@H]2CCN(Cc3ccccc3F)C2)cc(F)c(S(=O)(=O)Nc2cscn2)c1F` [Example 236, (S)-2,6-difluoro-4-((1-(2-fluorobenzyl)pyrrolidin-3-yl)(methyl)amino)-3-methyl-N-(thiazol-4-yl)benzenesulfonamide formate], the figures for the 50% inhibitory concentration (IC50) at NaV1.6, at NaV1.1 and on NaV1.5 were 0.067 µM, 24.3 µM and > 30 µM, respectively.

Consider `Cc1c(N(C)[C@H]2CCN(Cc3cccc(F)c3F)C2)cc(F)c(S(=O)(=O)Nc2cscn2)c1F` [Example 237, (S)-4-((1-(2,3-difluorobenzyl)pyrrolidin-3-yl)(methyl)amino)-2,6-difluoro-3-methyl-N-(thiazol-4-yl)benzenesulfonamide formate], for which the IC50 at NaV1.6 was determined as 0.064 µM; against NaV1.1 it was 8.52 µM; on NaV1.5, 14.7 µM.

Turning to `Cc1cc(S(=O)(=O)Nc2cscn2)c(F)cc1OC1CCN(Cc2ccccc2)CC1` [Example 239, 4-((1-benzylpiperidin-4-yl)oxy)-2-fluoro-5-methyl-N-(thiazol-4-yl)benzenesulfonamide], the IC50 worked out at 0.708 µM at NaV1.6, 27 µM against NaV1.1 and 16.5 µM at NaV1.5.

Turning to `Cc1c(N(C)[C@H]2CCN(Cc3cc(F)ccc3F)C2)cc(F)c(S(=O)(=O)Nc2cscn2)c1F` [Example 240, (S)-4-((1-(2,5-difluorobenzyl)pyrrolidin-3-yl)(methyl)amino)-2,6-difluoro-3-methyl-N-(thiazol-4-yl)benzenesulfonamide 2,2,2-trifluoroacetate], the IC50 on NaV1.6 came to 0.093 µM; on NaV1.1, 8.06 µM; at NaV1.5, 7.46 µM.

Consider `CN(c1ccc(S(=O)(=O)Nc2nccs2)cc1Cl)C1(C)CCN(Cc2ccccc2)C1` (stereo not drawn) [Example 241, 4-((1-benzyl-3-methylpyrrolidin-3-yl)(methyl)amino)-3-chloro-N-(thiazol-2-yl)benzenesulfonamide], for which the results for the IC50 on NaV1.6, on NaV1.1 and at NaV1.5 were 0.274 µM, 9.93 µM and 15.1 µM, respectively.

`CC[C@H](c1ccccc1)N1CC[C@H](N(C)c2cc(F)c(S(=O)(=O)Nc3cscn3)cc2Cl)C1` [Example 243, 5-chloro-2-fluoro-4-(methyl((S)-1-((R)-1-phenylpropyl)pyrrolidin-3-yl)amino)-N-(thiazol-4-yl)benzenesulfonamide]: the IC50 is 1.06 µM at NaV1.6, 13.1 µM on NaV1.1 and 25.7 µM at NaV1.5.

In the case of `CN(c1cc(F)c(S(=O)(=O)Nc2cscn2)cc1Cl)[C@H]1CCN(C2(c3ccccc3F)CCC2)C1` [Example 244, (S)-5-chloro-2-fluoro-4-((1-(1-(2-fluorophenyl)cyclobutyl)pyrrolidin-3-yl)(methyl)amino)-N-(thiazol-4-yl)benzenesulfonamide formate], the IC50 was found to be 1.23 µM on NaV1.6, 6.94 µM on NaV1.1 and 5.08 µM at NaV1.5.

As for `Cc1nc(CN2CC[C@H](N(C)c3cc(F)c(S(=O)(=O)Nc4cscn4)cc3C)C2)c(C)o1` [Example 245, (S)-4-((1-((2,5-dimethyloxazol-4-yl)methyl)pyrrolidin-3-yl)(methyl)amino)-2-fluoro-5-methyl-N-(thiazol-4-yl)benzenesulfonamide 2,2,2-trifluoroacetate], the IC50 at NaV1.6 is 2.12 µM; against NaV1.1, > 30 µM; at NaV1.5, > 30 µM.

For the compound `CN(c1ccc(S(=O)(=O)Nc2cscn2)c(F)c1Cl)[C@H]1CCN([C@H]2CCc3ccccc32)C1` [Example 247, 3-chloro-4-(((S)-1-((S)-2,3-dihydro-1H-inden-1-yl)pyrrolidin-3-yl)(methyl)amino)-2-fluoro-N-(thiazol-4-yl)benzenesulfonamide 2,2,2-trifluoroacetate], the IC50 at NaV1.6 was 0.469 µM; against NaV1.1 it was 6.87 µM; on NaV1.5, 14 µM.

Values taken from US10246453B2, “Benzenesulfonamide compounds and their use as therapeutic agents” (Xenon Pharmaceuticals Inc., priority 2016, dated 2019).
